Assay results: US10517964B2, “Optical imaging probes, optical imaging systems, methods of optical imaging, and methods of using optical imaging probes” (priority 2011, dated 2019)

How the values were obtained:
C6 glioma tumor = experiment: Cerenkov luminescence imaging with 6 mm fiber optic bundle in mice bearing C6 glioma; type: in vivo; details: n=4
Excerpt: Typical optical endoscopy imaging system includes an endoscope (usually made out of optical fibers and/or optical lenses such as grin/rod lenses), a white light source, and a CCD camera that is connected to the computer monitor. […] The subject “S” was placed […] the field of view (FOV) of the imaging system. The input end of the OF was placed close to the subject “S”. The output end of the “OF” faced the CCD camera such that the image transmitted by the output end was imaged on to the CCD camera using a relay lens system. The optical signal was normalized to photons per second per centimeter square per steradian (p/s/cm^2/sr). Identical settings were used for both in vitro and living mouse experiments.
^18F-FDG was produced by the Radiochemistry Facility at Stanford University using standard procedures. […] A CRC-15R PET dose calibrator (Capintec Inc., Ramseb, N.J.) was used for all radioactivity measurements. […]
To further characterize the distribution of ^18F-FDG, tumors and other organs were removed from the sacrificed mice (n=4) and subjected to fiber optic imaging as mentioned above. Inset figure on top right corner of each organ in FIG. 3.6(a) represents average Cerenkov radiance detected by a 6 mm fiber optic bundle. FIG. 3.6(b) represents biodistribution of ^18F-FDG in various tissues at one hour post injection in mice as measured using optical signals from radionuclides. […]

C6-fluc tumors = experiment: in vivo radioactive OI and microPET of mice bearing C6-fluc glioma
Description: [^18F]FDG has been widely used for imaging tumor metabolism^2,13,14, and Na^18F can accumulate in the bone^14. In this study, a group of mice (n=3) were implanted with firefly luciferase (fluc) transfected rat C6 glioma (C6-fluc). A day prior to the radioactive imaging, the mice were given with luciferin and bioluminescence OI was performed to verify the presence of tumor (FIG. 1.3a). Then [^18F]FDG was injected to the mice bearing C6-fluc glioma and imaged sequentially with IVIS Spectrum (FIG. 1.3b) and microPET (FIG. 1.3c). […] High imaging signals from bladder and brain were also observed by both modalities. But heart was hardly visible in the radioactive OI because it localizes deep inside of the mice body. After we sacrificed and open the thorax of the mice, the heart could be easily identified (FIG. 1.3d, yellow arrow). To further characterize the distribution of [^18F]FDG using radioactive OI, tumors and other normal organs and tissues were removed from the mice sacrificed and subjected to IVIS Spectrum imaging.
Quantitative analysis of both radioactive OI and microPET images was performed. The OI intensities in the tumor and the normal tissue as a function of time for [^18F]FDG was depicted in FIG. 1.3f, while the radioactivity accumulation in tumor and muscle over time was shown in FIG. 1.3g. […] Finally, regression analysis was performed for the tumor uptakes obtained from two imaging modalities, in order to further evaluate the quantitative analysis data obtained from radioactive OI. Good correlation was seen between the radioactive OI signal intensities and microPET images derived tumor uptakes (FIG. 1.3h, r^2 over 0.90 for the analyses). […]
Radioactive optical imaging: In vivo radioactive OI was also performed with an IVIS Spectrum system. […] Images were acquired and analyzed using Living Image 3.0 software (Caliper life sciences, Hopkinton, Mass.). Quantification of Radioactive OI images was corrected in accordance with radionuclides' respective physical decay properties. […]

primary bladder tumor = primary bladder tumor in humans; cited from earlier work

## 2-deoxy-2-[^18F]fluoro-D-glucose [[^18F]FDG]
C6 glioma tumor; 900 μCi i.v., 90 minutes post-injection
  in vivo tracer uptake by fiber bundle signal: Relatively high signals from the subcutaneous tumor and brain
C6 glioma tumor; one hour post injection
  ex vivo tissue distribution by fiber bundle signal: High signal was mainly observed from the tumor, heart, brain, and kidney tissue samples
C6-fluc tumors; from 0.5-2 h
  tumor uptake over time: increased over time
C6-fluc tumors; radioactive OI and microPET, 0.5-2 h p.i.
  tumor localization: preferentially localized and was retained in C6-fluc tumors
C6-fluc tumors; radioactive OI of removed tissues, 2.1 h p.i.
  ex vivo distribution in tumors and normal organs: High activity was mainly observed from the tumor and heart tissue samples
Primary bladder tumor
  standard uptake value (SUV): ~4.5
